Measurements published in patent US6667311B2, “Nitrogen substituted biaryl purine derivatives as potent antiproliferative agents” (Albany Molecular Research, Inc., priority 2001, dated 2003).
Entries after “also recorded” stand apart in the source; their conditions may differ. Like-named read-outs stand apart in the source and are kept apart here.

Columns and labels:
[1] = tested on: HeLa S-3 cells; assay: Inhibition of cell growth, HeLa cells (SRB); format: cell-based, human; details: for IC50: Table 2, growth inhibition, 2 days, replicate experiments, read-out: CI50 HeLa Cells
Procedure: Growth inhibition (GI50) values were measured with HeLa S-3 cells selected for growth on plastic. […] One day later, a control plate was fixed by addition of TCA to 5%. After five rinses with tap water the plate was air dried and stored at 4° C. Test compounds were added to the remaining plates at 10-fold dilutions between 0.01 and 100 μM. Two days later all plates were fixed as described above. Cells were then stained by the addition of 100μl per well of 0.4% sulforhodamine B (SRB) in 1% acetic acid for 30 min at 4° C. Wells were then quickly rinsed 5×with acetic acid (1%) and allowed to air dry. The SRB was then solubilized by the addition of 100 μl per well of unbuffered 10 mM Tris base. Dye was quantified by measuring absorbance at 490 nm on a Molecular Devices kinetic microplate reader. Growth at each inhibitor concentration relative to the untreated control was calculated according to the following equation: percent growth=100×(T−To)/(C−To), where T was the average optical density (OD) of the test wells after 2 days of treatment, To was the average OD of the wells in the control plate on day 0 and C was the average OD of untreated wells. Plots of percent growth versus inhibitor concentration were used to determine the GI50.

[2] = tested on: Tumor Cells in Hollow Fibers; assay: NCI Hollow Fiber Assay; format: in vivo
[3] = target: CyclinA/cdk2 (Homo sapiens, UniProt P24941); assay: CyclinA/cdk2 protein kinase assay (histone H1 phosphorylation, immunopurified complex from HeLa); details: read-out: IC50 CyclinA cdk2; Table 2; replicate experiments
[4] = target: CyclinE/cdk2 (Homo sapiens, UniProt P24941); assay: CyclinE/cdk2 protein kinase assay (histone H1 phosphorylation, immunopurified complex from HeLa); details: read-out: IC50 CyclinE cdk2; Table 2; replicate experiments
[5] = target: T1, CyclinB/cdk1 (Homo sapiens, UniProt P06493); assay: CyclinB/cdk1 protein kinase assay (histone H1 phosphorylation, immunopurified complex from HeLa); format: biochemical; details: Table 2; replicate experiments
T1 construct: Monoclonal antibody against cyclinB (GNS1) is added to the supernatant; endogenous in cells
T1 sequence (P06493 whole entry): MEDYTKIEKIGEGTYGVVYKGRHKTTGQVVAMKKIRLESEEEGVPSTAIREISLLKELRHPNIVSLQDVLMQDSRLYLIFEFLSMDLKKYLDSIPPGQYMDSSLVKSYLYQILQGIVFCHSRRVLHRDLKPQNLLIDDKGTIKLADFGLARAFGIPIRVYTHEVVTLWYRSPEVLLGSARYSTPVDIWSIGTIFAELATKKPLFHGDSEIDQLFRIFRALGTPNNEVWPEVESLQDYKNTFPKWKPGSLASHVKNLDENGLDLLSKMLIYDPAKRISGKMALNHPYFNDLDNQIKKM
T1 sequence (P14635 whole entry partner): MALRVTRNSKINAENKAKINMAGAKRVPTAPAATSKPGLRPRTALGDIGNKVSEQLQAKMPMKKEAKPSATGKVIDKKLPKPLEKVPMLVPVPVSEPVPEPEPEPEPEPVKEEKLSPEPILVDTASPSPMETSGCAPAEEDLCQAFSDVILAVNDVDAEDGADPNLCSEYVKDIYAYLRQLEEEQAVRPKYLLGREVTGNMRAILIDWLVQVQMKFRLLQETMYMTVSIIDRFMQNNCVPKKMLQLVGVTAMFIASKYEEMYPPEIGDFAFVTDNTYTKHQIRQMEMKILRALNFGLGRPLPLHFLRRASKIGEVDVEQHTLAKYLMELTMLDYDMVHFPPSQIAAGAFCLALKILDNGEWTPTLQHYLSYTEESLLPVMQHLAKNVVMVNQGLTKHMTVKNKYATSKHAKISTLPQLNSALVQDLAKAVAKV
Procedure: HeLa cells are blocked at the G1/S border by culturing in the presence of 2 mM thymidine for 20 h. The cells are then rinsed 3×in phosphate buffered saline and resuspended in regular medium. After 4 h of culture, the mitotic blocker, nocodazole is added to a final concentration of 75 ng/ml. […] The lysate is then clarified by centrifugation at 10,000×g for 10 min. The supernatant is collected and diluted 1:5 with Lysis Buffer. Monoclonal antibody against cyclinB (GNS1) is added to the supernatant to a final concentration of 5 μg/ml and shaken at 4° C. for 2 h. The immune complexes are then collected by the addition of 200 μl of protein agarose beads for 1 h. The beads are washed 4×in lysis buffer and 1×in kinase assay buffer.
Duplicate assays were performed at each concentration.

[6] = tested on: MALME-3M; assay: NCI growth inhibition, MALME-3M; format: cell-based, human; details: Homo sapiens; MALME-3M (Melanoma)
[7] = tested on: SK-MEL-5; assay: NCI growth inhibition, SK-MEL-5; format: cell-based, human; details: Homo sapiens; SK-MEL-5 (Melanoma)
[8] = tested on: NCI-H460; assay: NCI growth inhibition, NCI-H460; format: cell-based, human; details: Homo sapiens; NCI-H460 (Non-Small Cell Lung)
[9] = tested on: SK-OV-3; assay: NCI growth inhibition, SK-OV-3; format: cell-based, human; details: Homo sapiens; SK-OV-3 (Ovarian)
[10] = tested on: CAKI-1; assay: NCI growth inhibition, CAKI-1; format: cell-based, human; details: Homo sapiens; CAKI-1 (Renal)

Structure (SMILES): CC[C@H](CO)Nc1nc(NCc2ccc(-c3ccccc3)cc2)c2ncn(C(C)C)c2n1 [Compound 73]
- IC50 [1]: 0.5 µM

Structure (SMILES): CC(=O)N[C@H]1CC[C@H](Nc2nc(NCc3ccc(-c4ccsc4)nc3)c3ncn(C(C)C)c3n2)CC1 [Compound 124]
- Cell Types Killed [2]: H23, H522, OVCAR-3,; also recorded: MDA-MB-435

Structure (SMILES): CC(=O)N[C@@H](C)CNc1nc(NCc2ccc(-c3ccccc3)cc2)c2ncn(C(C)C)c2n1 [Compound 108]
- IC50 [3]: 10 µM

Structure (SMILES): CC(=O)N[C@H]1CC[C@H](Nc2nc(NCc3ccc(-c4cccc(Cl)c4)cc3)c3ncn(C(C)C)c3n2)CC1 [Compound 110]
- IC50 [1]: 0.02 µM

Structure (SMILES): COc1cccc(-c2ccc(CNc3nc(N[C@H]4CC[C@H](NC(C)=O)CC4)nc4c3ncn4C(C)C)cc2)c1 [Compound 180]
- IC50 ([1]; Homo sapiens, HeLa S3, 48 h): 0.4 µM

Structure (SMILES): CC(C)n1cnc2c(NCc3ccc(-c4cccnc4)cc3)nc(N[C@H]3CC[C@H](N)CC3)nc21 [Compound 103]
- Cell Types Killed [2]: OVCAR 3,OVCAR 5,; also recorded: H522, MDA-MB-435, SF295

Structure (SMILES): CC(=O)N[C@H]1CC[C@H](Nc2nc(NCc3ccc(-c4ccsc4)cc3)c3ncn(C(C)C)c3n2)CC1 [Compound 113]
- Cell Types Killed [2]: H23, H522, OVCAR-3

Structure (SMILES): CC(=O)N[C@H]1CC[C@H](Nc2nc(NCc3ccc(-c4ccccn4)cc3)c3ncn(C(C)C)c3n2)CC1 [Compound 79]
- IC50 [3]: 10 µM

Structure (SMILES): CC(C)n1cnc2c(NCc3ccc(-c4cccs4)cc3)nc(N[C@H]3CC[C@H](N)CC3)nc21 [Compound 111]
- IC50 [3]: 0.2 µM
- IC50 [4]: 0.07 µM

Structure (SMILES): CC(C)n1cnc2c(NCc3ccc(-c4ccccn4)nc3)nc(N[C@H]3CC[C@H](N)CC3)nc21 [Compound 93]
- IC50 [1]: 0.3 µM

Structure (SMILES): CC(C)n1cnc2c(NCc3ccc(-c4ccccc4)nc3)nc(N[C@H]3CC[C@H](N)CC3)nc21 [Compound 86]
- Cell Types Killed [2]: OVCAR 3, OVCAR 5, H522

Structure (SMILES): CC[C@H](CO)Nc1nc(NCc2cccnc2)c2ncn(C(C)C)c2n1 [Compound 127, reference compound]
- GI50 ([1]; Homo sapiens, HeLa S3, Table 3, reference compounds in comparison): 7 to 15 µM

Structure (SMILES): CC(=O)N[C@H]1CC[C@H](Nc2nc(NCc3ccc(-c4ccc(C)cc4)cc3)c3ncn(C(C)C)c3n2)CC1 [Compound 97]
- IC50 [5]: 10 µM

Structure (SMILES): CC(=O)N[C@H]1CC[C@H](Nc2nc(NCc3ccc(-c4cccc(C)c4)cc3)c3ncn(C(C)C)c3n2)CC1 [Compound 178]
- IC50 ([1]; Homo sapiens, HeLa S3, 48 h): 0.4 µM

Structure (SMILES): CC(=O)N[C@H]1CC[C@H](Nc2nc(NCc3ccc(-c4ccccn4)nc3)c3ncn(C(C)C)c3n2)CC1 [Compound 94]
- Cell Types Killed [2]: COLO 205, OVCAR-3, H522

Structure (SMILES): CC(C)n1cnc2c(NCc3ccc(-c4ccccc4)cn3)nc(N[C@H]3CC[C@H](N)CC3)nc21 [Compound 229]
- IC50 ([1]; Homo sapiens, HeLa S3, 48 h): 0.4 µM

Structure (SMILES): CC(C)n1cnc2c(NCc3ccc(-c4ccsc4)cc3)nc(N[C@H]3CC[C@H](N)CC3)nc21 [Compound 12]
- IC50 [1]: 0.0001 µM
- Cell Types Killed [2]: H522, MDA-MB-435
- GI50 [6]: 0.01 µM
- GI50 [7]: 0.014 µM
- GI50 [8]: 0.015 µM
- GI50 [9]: 0.018 µM
- GI50 [10]: 0.038 µM

Structure (SMILES): CC(C)n1cnc2c(NCc3ccc(-c4ccccn4)cc3)nc(N[C@H]3CC[C@H](N)CC3)nc21 [Compound 78]
- Cell Types Killed [2]: H23, H522, OVCAR3, SF29
